# Source: ChEMBL document CHEMBL1201862, “PubChem BioAssay data set” (2004)
#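 48-hour exposure; five concentrations; linearly interpolated endpoints. GI50: concentration for 50% inhibition of growth.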 Calls of active or inactive are those of the source. Rule as the data show it: active = GI50 up to about 1.1 µM and inactive = higher.
# Tests used:
# Experiment in all cases: DTP human tumour cell line panel, 48 h
# 786-0 = system: 786-0
# A498 = system: A498
# A549 = system: A549
# ACHN = system: ACHN
# CAKI-1 = system: CAKI-1
# CCRF-CEM = system: CCRF-CEM
# COLO 205 = system: COLO 205
# DLD-1 = system: DLD-1
# DMS-114 = system: DMS-114
# DMS-273 = system: DMS-273
# EKVX = system: EKVX
# HCC 2998 = system: HCC 2998
# HCT-116 = system: HCT-116
# HCT-15 = system: HCT-15
# HL-60 = system: HL-60
# HOP-18 = system: HOP-18
# HOP-62 = system: HOP-62
# HOP-92 = system: HOP-92
# HT-29 = system: HT-29
# IGROV-1 = system: IGROV-1
# K562 = system: K562
# KM-20L2 = system: KM-20L2
# KM12 = system: KM12
# LOX IMVI = system: LOX IMVI
# M14 = system: M14
# M19-MEL = system: M19-MEL
# MOLT-4 = system: MOLT-4
# Malme-3M = system: Malme-3M
# NCI-H226 = system: NCI-H226
# NCI-H23 = system: NCI-H23
# NCI-H460 = system: NCI-H460
# NCI-H522 = system: NCI-H522
# OVCAR-3 = system: OVCAR-3
# OVCAR-4 = system: OVCAR-4
# OVCAR-5 = system: OVCAR-5
# OVCAR-8 = system: OVCAR-8
# RPMI-8226 = system: RPMI-8226
# RXF 393 = system: RXF 393
# SF-268 = system: SF-268
# SF-295 = system: SF-295
# SF-539 = system: SF-539
# SK-MEL-28 = system: SK-MEL-28
# SK-MEL-2 = system: SK-MEL-2
# SK-MEL-5 = system: SK-MEL-5
# SK-OV-3 = system: SK-OV-3
# SN12C = system: SN12C
# SNB-19 = system: SNB-19
# SNB-75 = system: SNB-75
# SNB-78 = system: SNB-78
# SR = system: SR
# SW-620 = system: SW-620
# TK-10 = system: TK-10
# U-251 = system: U-251
# UACC-257 = system: UACC-257
# UACC-62 = system: UACC-62
# UO-31 = system: UO-31
# XF498 = system: XF498
# LXFL 529 = system: LXFL 529
smiles,measurement,setting,value
NC1=Nc2ccccc2Sc2ccccc21,GI50,786-0,> 100 µM (inactive)
same,GI50,A498,84.9 µM (inactive)
same,GI50,A549,> 100 µM (inactive)
same,GI50,ACHN,> 100 µM (inactive)
same,GI50,CAKI-1,> 100 µM (inactive)
same,GI50,CCRF-CEM,> 100 µM (inactive)
same,GI50,COLO 205,> 100 µM (inactive)
same,GI50,DLD-1,> 100 µM (inactive)
same,GI50,DMS-114,> 100 µM (inactive)
same,GI50,DMS-273,> 100 µM (inactive)
same,GI50,EKVX,> 100 µM (inactive)
same,GI50,HCC 2998,> 100 µM (inactive)
same,GI50,HCT-116,35.9 µM (inactive)
same,GI50,HCT-15,> 100 µM
same,GI50,HL-60,> 100 µM (inactive)
same,GI50,HOP-18,0.912 µM (active)
same,GI50,HOP-62,> 100 µM (inactive)
same,GI50,HOP-92,32.7 µM (inactive)
same,GI50,HT-29,> 100 µM (inactive)
same,GI50,IGROV-1,> 100 µM (inactive)
same,GI50,K562,82.6 µM (inactive)
same,GI50,KM-20L2,> 100 µM (inactive)
same,GI50,KM12,> 100 µM (inactive)
same,GI50,LOX IMVI,> 100 µM (inactive)
same,GI50,M14,> 100 µM (inactive)
same,GI50,M19-MEL,> 100 µM (inactive)
same,GI50,MOLT-4,> 100 µM (inactive)
same,GI50,Malme-3M,> 100 µM (inactive)
same,GI50,NCI-H226,24.4 µM (inactive)
same,GI50,NCI-H23,> 100 µM (inactive)
same,GI50,NCI-H460,> 100 µM (inactive)
same,GI50,NCI-H522,60.3 µM (inactive)
same,GI50,OVCAR-3,> 100 µM (inactive)
same,GI50,OVCAR-4,> 100 µM (inactive)
same,GI50,OVCAR-5,> 100 µM (inactive)
same,GI50,OVCAR-8,> 100 µM (inactive)
same,GI50,RPMI-8226,77.4 µM (inactive)
same,GI50,RXF 393,95.7 µM (inactive)
same,GI50,SF-268,56.9 µM (inactive)
same,GI50,SF-295,> 100 µM (inactive)
same,GI50,SF-539,58.5 µM (inactive)
same,GI50,SK-MEL-28,> 100 µM (inactive)
same,GI50,SK-MEL-2,> 100 µM (inactive)
same,GI50,SK-MEL-5,91.8 µM (inactive)
same,GI50,SK-OV-3,> 100 µM (inactive)
same,GI50,SN12C,> 100 µM (inactive)
same,GI50,SNB-19,87.3 µM (inactive)
same,GI50,SNB-75,16.5 µM (inactive)
same,GI50,SNB-78,> 100 µM (inactive)
same,GI50,SR,> 100 µM (inactive)
same,GI50,SW-620,> 100 µM (inactive)
same,GI50,TK-10,> 100 µM (inactive)
same,GI50,U-251,> 100 µM (inactive)
same,GI50,UACC-257,> 100 µM (inactive)
same,GI50,UACC-62,> 100 µM (inactive)
same,GI50,UO-31,34.4 µM (inactive)
same,GI50,XF498,52.1 µM (inactive)
COc1cc2c(cc1OC)C(Cc1ccc(Oc3cc(CC4c5cc(OC)c(OC)cc5CCN4C)ccc3O)cc1)N(C)CC2 (configuration not stated),GI50,786-0,13.5 µM (inactive)
same,GI50,A498,22 µM (inactive)
same,GI50,A549,35.2 µM (inactive)
same,GI50,ACHN,16.5 µM (inactive)
same,GI50,CAKI-1,21.7 µM (inactive)
same,GI50,CCRF-CEM,12.7 µM (inactive)
same,GI50,COLO 205,11.3 µM (inactive)
same,GI50,DLD-1,18.7 µM (inactive)
same,GI50,DMS-114,16.3 µM (inactive)
same,GI50,DMS-273,21.7 µM (inactive)
same,GI50,EKVX,88.5 µM (inactive)
same,GI50,HCC 2998,14.3 µM (inactive)
same,GI50,HCT-116,10.3 µM (inactive)
same,GI50,HCT-15,15.6 µM
same,GI50,HL-60,13.4 µM (inactive)
same,GI50,HOP-18,26.5 µM (inactive)
same,GI50,HOP-62,24.3 µM (inactive)
same,GI50,HOP-92,24.3 µM (inactive)
same,GI50,HT-29,13.1 µM (inactive)
same,GI50,IGROV-1,23.1 µM (inactive)
same,GI50,K562,10.2 µM (inactive)
same,GI50,KM-20L2,13.1 µM (inactive)
same,GI50,KM12,21.9 µM (inactive)
same,GI50,LOX IMVI,17.4 µM (inactive)
same,GI50,LXFL 529,14.8 µM (inactive)
same,GI50,M14,15.2 µM (inactive)
same,GI50,M19-MEL,21 µM (inactive)
same,GI50,MOLT-4,14.2 µM (inactive)
same,GI50,Malme-3M,19.5 µM (inactive)
same,GI50,NCI-H226,22.8 µM (inactive)
same,GI50,NCI-H23,51.2 µM (inactive)
same,GI50,NCI-H460,27.9 µM (inactive)
same,GI50,NCI-H522,12 µM (inactive)
same,GI50,OVCAR-3,19.5 µM (inactive)
same,GI50,OVCAR-4,20.5 µM (inactive)
same,GI50,OVCAR-5,> 100 µM (inactive)
same,GI50,OVCAR-8,87.3 µM (inactive)
same,GI50,RPMI-8226,16.9 µM (inactive)
same,GI50,RXF 393,11.9 µM (inactive)
same,GI50,SF-268,14.2 µM (inactive)
same,GI50,SF-295,26.4 µM (inactive)
same,GI50,SF-539,16.3 µM (inactive)
same,GI50,SK-MEL-28,16.1 µM (inactive)
same,GI50,SK-MEL-2,16.1 µM (inactive)
same,GI50,SK-MEL-5,15.7 µM (inactive)
same,GI50,SK-OV-3,35.3 µM (inactive)
same,GI50,SN12C,25.8 µM (inactive)
same,GI50,SNB-19,40.6 µM (inactive)
same,GI50,SNB-75,14.8 µM (inactive)
same,GI50,SNB-78,28.5 µM (inactive)
same,GI50,SR,1.79 µM (inactive)
same,GI50,SW-620,16.6 µM (inactive)
same,GI50,TK-10,52.7 µM (inactive)
same,GI50,U-251,16.9 µM (inactive)
same,GI50,UACC-257,16.2 µM (inactive)
same,GI50,UACC-62,17.4 µM (inactive)
same,GI50,UO-31,14.5 µM (inactive)
same,GI50,XF498,18.3 µM (inactive)
CC(C)(C)c1cc(C(O)(C(F)(F)F)C(F)(F)F)c2c(c1)C(C(F)(F)F)(C(F)(F)F)OC(c1ccccc1)(C(C)(C)C)N2 (configuration not stated),GI50,786-0,> 100 µM (inactive)
same,GI50,A549,> 100 µM (inactive)
same,GI50,ACHN,3.7 µM (inactive)
same,GI50,CAKI-1,4.02 µM (inactive)
same,GI50,COLO 205,4.08 µM (inactive)
same,GI50,DLD-1,3.76 µM (inactive)
same,GI50,DMS-114,2.82 µM (inactive)
same,GI50,DMS-273,3.61 µM (inactive)
same,GI50,EKVX,5.18 µM (inactive)
same,GI50,HCC 2998,8.07 µM (inactive)
same,GI50,HCT-116,3.72 µM (inactive)
same,GI50,HCT-15,3.56 µM
same,GI50,HOP-18,0.515 µM (active)
same,GI50,HOP-92,< 0.01 µM (active)
same,GI50,HT-29,3.4 µM (inactive)
same,GI50,IGROV-1,4.33 µM (inactive)
same,GI50,K562,3.07 µM (inactive)
same,GI50,KM-20L2,4.92 µM (inactive)
same,GI50,KM12,4.5 µM (inactive)
same,GI50,LXFL 529,3.28 µM (inactive)
same,GI50,M14,0.659 µM (active)
same,GI50,M19-MEL,3.56 µM (inactive)
same,GI50,MOLT-4,2.07 µM (inactive)
same,GI50,Malme-3M,7.06 µM (inactive)
same,GI50,NCI-H226,3.24 µM (inactive)
same,GI50,NCI-H23,1.99 µM (inactive)
same,GI50,NCI-H460,2.65 µM (inactive)
same,GI50,NCI-H522,3.03 µM (inactive)
same,GI50,OVCAR-3,0.637 µM (active)
same,GI50,OVCAR-4,14.4 µM (inactive)
same,GI50,OVCAR-5,18.8 µM (inactive)
same,GI50,OVCAR-8,6.05 µM (inactive)
same,GI50,RPMI-8226,3.07 µM (inactive)
same,GI50,RXF 393,3.37 µM (inactive)
same,GI50,SF-295,6.56 µM (inactive)
same,GI50,SF-539,> 100 µM (inactive)
same,GI50,SK-MEL-28,9.16 µM (inactive)
same,GI50,SK-MEL-2,4.45 µM (inactive)
same,GI50,SK-MEL-5,2.45 µM (inactive)
same,GI50,SK-OV-3,2.7 µM (inactive)
same,GI50,SN12C,4.85 µM (inactive)
same,GI50,SNB-19,4.65 µM (inactive)
same,GI50,SNB-75,2.82 µM (inactive)
same,GI50,SNB-78,8.28 µM (inactive)
same,GI50,SR,2.58 µM (inactive)
same,GI50,SW-620,4.5 µM (inactive)
same,GI50,TK-10,3.02 µM (inactive)
same,GI50,U-251,3.3 µM (inactive)
same,GI50,UACC-257,4.99 µM (inactive)
same,GI50,UACC-62,3.66 µM (inactive)
same,GI50,UO-31,4.04 µM (inactive)
same,GI50,XF498,3.6 µM (inactive)
